Among the data in patent publication US20250101013A1, “FUNCTIONALIZED AMINOTHIAZOLES” (LEADXPRO AG, priority 2022, published 2025) are EC50 values, retold here.

Format in all cases: cell-based
Holding throughout (conditions): HEK293 cells expressing recombinant human receptor

One assay has as its target human A2B receptor (Homo sapiens (Human), UniProt P29275). The experiment in a line: Intracellular cAMP functional assay (HTRF), A2B. The protocol:
(§1) Compound activity in human adenosine receptors A2A, A2B, A1, and A3 was measured in this functional cellular assay using an HTRF kit (Perkin Elmer). […] Dose response curves were performed in parallel with the reference compounds. The reference compounds used for A2A, A2B, A1, and A3, were respectively NECA, ZM241385, DPCPX, MRS. 12 μl of cells were mixed with 6 μl of the test compound at increasing concentrations and then incubated 10 min. Thereafter 6 μl of the reference agonist was added at a final concentration corresponding to the historical EC80. The plates were then incubated for 30 min at room temperature. After addition of the lysis buffer and 1 hour incubation, cAMP concentrations were estimated, according to the manufacturer specification, with the HTRF kit. The results showing functional activity of embodied compounds on adenosine receptors are shown below in Table 1.
For orientation: Time-resolved FRET reads energy transfer from a long-lived donor to a nearby acceptor.

The target of another assay is human A1 receptor (Homo sapiens (Human), UniProt P30542). The experiment in a line: Intracellular cAMP functional assay (HTRF), A1. The method, then:
as §1

Another assay has as its target human A3 receptor (Homo sapiens (Human), UniProt P0DMS8). The experiment in a line: Intracellular cAMP functional assay (HTRF), A3. The protocol: as §1
In the next assay the target is human A2A receptor (Homo sapiens (Human), UniProt P29274). The experiment in a line: Intracellular cAMP functional assay (HTRF), A2A. The method, then: as §1

For orientation: EC50 means the midpoint of the concentration-response curve.

Structures are written as SMILES. Bounds are passed on as bounds.

human A1 receptor, sequence (P30542 whole entry): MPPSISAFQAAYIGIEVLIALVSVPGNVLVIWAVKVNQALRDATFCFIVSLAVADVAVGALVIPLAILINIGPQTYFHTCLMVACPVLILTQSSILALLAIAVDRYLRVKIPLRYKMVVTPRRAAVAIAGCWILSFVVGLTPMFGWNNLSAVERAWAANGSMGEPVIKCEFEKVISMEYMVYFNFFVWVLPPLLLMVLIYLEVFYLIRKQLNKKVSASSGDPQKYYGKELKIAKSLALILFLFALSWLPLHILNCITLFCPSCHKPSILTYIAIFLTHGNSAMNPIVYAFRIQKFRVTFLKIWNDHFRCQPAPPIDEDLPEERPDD
human A2B receptor, sequence (P29275 whole entry): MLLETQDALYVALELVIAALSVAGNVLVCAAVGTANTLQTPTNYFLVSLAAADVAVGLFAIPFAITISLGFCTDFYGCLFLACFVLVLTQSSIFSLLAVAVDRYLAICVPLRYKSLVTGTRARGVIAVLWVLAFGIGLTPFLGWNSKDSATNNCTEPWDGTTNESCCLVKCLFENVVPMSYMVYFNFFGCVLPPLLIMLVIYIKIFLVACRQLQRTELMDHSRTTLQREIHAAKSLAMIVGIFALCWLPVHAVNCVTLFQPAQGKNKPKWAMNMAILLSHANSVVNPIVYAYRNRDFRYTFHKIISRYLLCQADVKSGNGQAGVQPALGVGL
human A3 receptor, sequence (P0DMS8 whole entry): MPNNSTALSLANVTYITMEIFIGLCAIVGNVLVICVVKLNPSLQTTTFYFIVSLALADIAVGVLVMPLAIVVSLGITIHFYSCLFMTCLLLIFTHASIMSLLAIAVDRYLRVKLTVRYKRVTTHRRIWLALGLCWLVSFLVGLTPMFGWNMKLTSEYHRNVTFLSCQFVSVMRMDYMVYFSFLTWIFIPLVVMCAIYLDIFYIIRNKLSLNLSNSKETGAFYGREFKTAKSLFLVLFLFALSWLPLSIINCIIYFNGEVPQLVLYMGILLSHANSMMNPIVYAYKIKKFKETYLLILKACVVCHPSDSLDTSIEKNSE
human A2A receptor, sequence (P29274 whole entry): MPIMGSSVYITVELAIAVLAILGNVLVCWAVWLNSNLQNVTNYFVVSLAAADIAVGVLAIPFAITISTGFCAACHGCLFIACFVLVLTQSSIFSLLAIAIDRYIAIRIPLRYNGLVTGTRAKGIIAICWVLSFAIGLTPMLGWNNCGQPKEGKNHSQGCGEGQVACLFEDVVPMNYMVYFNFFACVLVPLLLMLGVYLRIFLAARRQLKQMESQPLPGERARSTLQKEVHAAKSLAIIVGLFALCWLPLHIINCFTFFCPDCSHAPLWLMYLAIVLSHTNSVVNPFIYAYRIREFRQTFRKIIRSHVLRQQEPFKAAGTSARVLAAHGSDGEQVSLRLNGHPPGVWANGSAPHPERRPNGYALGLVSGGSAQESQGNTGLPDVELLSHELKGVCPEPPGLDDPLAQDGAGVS

As for `Cc1nccn1-c1sc(Nc2nc[nH]n2)nc1-c1cccc(C#N)c1` [Compound 9, 3-[5-(2-Methyl-1H-Imidazol-1-Yl)-2-[(1H-1,2,4-Triazol-3-Yl)Amino]-1,3-Thiazol-4-Yl]Benzonitrile], the EC50 was 3.3 nM at human A2B receptor, 145 nM at human A1 receptor, 2350 nM on human A3 receptor and over 10000 nM at human A2A receptor.
For `Cc1nccn1-c1sc(Nc2n[nH]c(C3CC3)n2)nc1-c1cccc(C#N)c1` [Compound 8, 3-{2-[(5-Cyclopropyl-1H-1,2,4-Triazol-3-Yl)Amino]-5-(2-Methyl-1H-Imidazol-1-Yl)-1,3-Thiazol-4-Yl}Benzonitrile], the EC50 at human A2B receptor is 2.9 nM; on human A1 receptor it was 107 nM; at human A3 receptor it was over 20000 nM; at human A2A receptor, over 10000 nM.
`Cc1nccc(-c2sc(Nc3n[nH]c(C4CC4)n3)nc2-c2cccc(C#N)c2)c1C` [Compound 6, 3-{2-[(5-Cyclopropyl-1H-1,2,4-Triazol-3-Yl)Amino]-5-(2,3-Dimethylpyridin-4-Yl)-1,3-Thiazol-4-Yl}Benzonitrile]: the EC50 at human A2B receptor amounted to 0.84 nM; at human A1 receptor it was 1.2 nM; on human A3 receptor, 2060 nM; at human A2A receptor, 206 nM.
Regarding `N#Cc1cccc(-c2nc(Nc3n[nH]c(C4CC4)n3)sc2-c2ccncn2)c1` [Compound 24, 3-{2-[(5-Cyclopropyl-1H-1,2,4-Triazol-3-Yl)Amino]-5-(Pyrimidin-4-Yl)-1,3-Thiazol-4-Yl}Benzonitrile], the EC50 on human A2B receptor is 2.3 nM; at human A1 receptor, 24.1 nM; at human A3 receptor, over 30000 nM.
For the compound `Cn1cc(-c2sc(Nc3n[nH]c(C4CC4)n3)nc2-c2cccc(C#N)c2)ccc1=O` [Compound 29, 3-{2-[(5-Cyclopropyl-1H-1,2,4-Triazol-3-Yl)Amino]-5-(1-Methyl-6-Oxo-1,6-Dihydropyridin-3-Yl)-1,3-Thiazol-4-Yl}Benzonitrile], the EC50 is 0.4 nM at human A2B receptor, 4.8 nM at human A1 receptor, over 30000 nM on human A3 receptor and 1.1 nM at human A2A receptor.
With `CCc1nccn1-c1sc(Nc2n[nH]c(C)n2)nc1-c1cccc(C#N)c1` [Compound 16, 3-[5-(2-Ethyl-1H-Imidazol-1-Yl)-2-[(5-Methyl-1H-1,2,4-Triazol-3-Yl)Amino]-1,3-Thiazol-4-Yl]Benzonitrile], the figures for the EC50 at human A2B receptor and at human A2A receptor were 2.2 nM and 61 nM, respectively.
Turning to `Cc1cc(-c2sc(Nc3n[nH]c(C4CC4)n3)nc2-c2cccc(C#N)c2)c(C)cn1` [Compound 4, 3-{2-[(5-Cyclopropyl-1H-1,2,4-Triazol-3-Yl)Amino]-5-(2,5-Dimethylpyridin-4-Yl)-1,3-Thiazol-4-Yl}Benzonitrile], the EC50 on human A2B receptor is 0.99 nM; at human A1 receptor, 16.4 nM; at human A3 receptor, over 20000 nM; on human A2A receptor, 3890 nM.
For `Cc1cc(-c2sc(Nc3n[nH]c(C)n3)nc2-c2cccc(C#N)c2)c(C)cn1` [Compound 13, 3-[5-(2,5-Dimethylpyridin-4-Yl)-2-[(5-Methyl-1H-1,2,4-Triazol-3-Yl)Amino]-1,3-Thiazol-4-Yl]Benzonitrile] the same measures were 2.8 nM, 65 nM, over 20000 nM and over 10000 nM.
In the case of `Cc1cnncc1-c1sc(Nc2n[nH]c(C3CC3)n2)nc1-c1cccc(C#N)c1` [Compound 23, 3-{2-[(5-Cyclopropyl-1H-1,2,4-Triazol-3-Yl)Amino]-5-(5-Methylpyridazin-4-Yl)-1,3-Thiazol-4-Yl}Benzonitrile], the EC50 on human A2B receptor is 6.7 nM; on human A1 receptor, 115 nM; at human A3 receptor, over 30000 nM.
The like results for `Cc1cnccc1-c1sc(Nc2nc[nH]n2)nc1-c1cccc(C#N)c1` [Compound 22, 3-{5-(3-Methylpyridin-4-Yl)-2-[(1H-1,2,4-Triazol-3-Yl)Amino]-1,3-Thiazol-4-Yl}Benzonitrile] were, in that order, 0.6 nM, 2.3 nM and over 30000 nM.
For `N#Cc1cccc(-c2nc(Nc3n[nH]c(C4CC4)n3)sc2-c2ccncc2Cl)c1` [Compound 5, 3-[5-(3-Chloropyridin-4-Yl)-2-[(5-Cyclopropyl-1H-1,2,4-Triazol-3-Yl)Amino]-1,3-Thiazol-4-Yl]Benzonitrile], the EC50 turned out to be 0.76 nM at human A2B receptor, 2.3 nM on human A1 receptor, 2350 nM at human A3 receptor and 478 nM at human A2A receptor.
Consider `Cc1cncnc1-c1sc(Nc2n[nH]c(C3CC3)n2)nc1-c1cccc(C#N)c1` [Compound 27, 3-{2-[(5-Cyclopropyl-1H-1,2,4-Triazol-3-Yl)Amino]-5-(5-Methylpyrimidin-4-Yl)-1,3-Thiazol-4-Yl}Benzonitrile], for which the values for the EC50 at human A2B receptor, at human A1 receptor and on human A3 receptor were 1.7 nM, 20.7 nM and over 30000 nM, respectively.
As to `N#Cc1cccc(-c2nc(Nc3n[nH]c(C4CC4)n3)sc2-c2ccncc2F)c1` [Compound 2, 3-{2-[(5-cyclopropyl-1H-1,2,4-triazol-3-yl)amino]-5-(3-fluoropyridin-4-yl)-1,3-thiazol-4-yl}benzonitrile], the EC50 is 0.3 nM at human A2B receptor, 0.78 nM on human A1 receptor, over 20000 nM on human A3 receptor and 78.9 nM at human A2A receptor.
With `N#Cc1cccc(-c2nc(Nc3n[nH]c(C4CC4)n3)sc2-c2ccnnc2)c1` [Compound 25, 3-{2-[(5-Cyclopropyl-1H-1,2,4-Triazol-3-Yl)Amino]-5-(Pyridazin-4-Yl)-1,3-Thiazol-4-Yl}Benzonitrile], the EC50 on human A2B receptor is 2.4 nM; at human A1 receptor it was 2.6 nM; at human A3 receptor, over 30000 nM.
As for `Cc1nccn1-c1sc(Nc2n[nH]c(C3CC3)n2)nc1-c1cc(C#N)ccc1F` [Compound 18, 3-{2-[(5-Cyclopropyl-1H-1,2,4-Triazol-3-Yl)Amino]-5-(2-Methyl-1H-Imidazol-1-Yl)-1,3-Thiazol-4-Yl}-4-Fluorobenzonitrile], the figures for the EC50 at human A2B receptor and on human A2A receptor were 33.4 nM and over 10000 nM, respectively.
In the case of `Cc1nc(Nc2nc(-c3cccc(C#N)c3)c(-n3ccnc3CO)s2)n[nH]1` [Compound 21, 3-{5-[2-(Hydroxymethyl)-1H-Imidazol-1-Yl]-2-[(5-Methyl-1H-1,2,4-Triazol-3-Yl)Amino]-1,3-Thiazol-4-Yl}Benzonitrile], the EC50 is 1.64 nM at human A2B receptor, over 30000 nM on human A1 receptor, over 30000 nM on human A3 receptor and 6980 nM at human A2A receptor.
Regarding `N#Cc1cccc(-c2nc(Nc3nc[nH]n3)sc2-n2ccnc2CO)c1` [Compound 19, 3-{5-[2-(Hydroxymethyl)-1H-Imidazol-1-Yl]-2-[(1H-1,2,4-Triazol-3-Yl)Amino]-1,3-Thiazol-4-Yl}Benzonitrile], the EC50 on human A2B receptor is 2.01 nM; at human A1 receptor, 885 nM; on human A3 receptor it was over 3400 nM; at human A2A receptor, 5760 nM.
As for `Cc1cc(-c2sc(Nc3n[nH]c(CO)n3)nc2-c2cccc(C#N)c2)c(C)cn1` [Compound 14, 3-[5-(2,5-Dimethylpyridin-4-Yl)-2-{[5-(Hydroxymethyl)-1H-1,2,4-Triazol-3-Yl]Amino}-1,3-Thiazol-4-Yl]Benzonitrile], the EC50 is 3 nM at human A2B receptor, 36.1 nM at human A1 receptor, over 20000 nM at human A3 receptor and over 10000 nM at human A2A receptor.
The like results for `CCc1nc(Nc2nc(-c3cccc(C#N)c3)c(-n3ccnc3CO)s2)n[nH]1` [Compound 20, 3-{2-[(5-Ethyl-1H-1,2,4-Triazol-3-Yl)Amino]-5-[2-(Hydroxymethyl)-1H-Imidazol-1-Yl]-1,3-Thiazol-4-Yl}Benzonitrile] were, in that order, 1.26 nM, 360 nM, over 30000 nM and 3410 nM.
Turning to `N#Cc1cccc(-c2nc(Nc3n[nH]c(C4CC4)n3)sc2-c2ccncc2)c1` [Compound 26, 3-{2-[(5-Cyclopropyl-1H-1,2,4-Triazol-3-Yl)Amino]-5-(Pyridin-4-Yl)-1,3-Thiazol-4-Yl}Benzonitrile], the results for the EC50 at human A2B receptor, at human A1 receptor and on human A3 receptor were 0.7 nM, 0.8 nM and over 30000 nM, respectively.
As for `Cc1cc(-c2sc(Nc3n[nH]c(C4CC4)n3)nc2-c2cccc(C#N)c2)ccn1` [Compound 7, 3-{2-[(5-Cyclopropyl-1H-1,2,4-Triazol-3-Yl)Amino]-5-(2-Methylpyridin-4-Yl)-1,3-Thiazol-4-Yl}Benzonitrile], the EC50 on human A2B receptor worked out at 1.4 nM; at human A1 receptor it was 1.7 nM; on human A3 receptor, 1740 nM; on human A2A receptor, 24.4 nM.
The like results for `Cc1cnccc1-c1sc(Nc2n[nH]c(C3CC3)n2)nc1-c1cccc(C#N)c1` [Compound 3, 3-{2-[(5-Cyclopropyl-1H-1,2,4-Triazol-3-Yl)Amino]-5-(3-Methylpyridin-4-Yl)-1,3-Thiazol-4-Yl}Benzonitrile] were, in that order, 0.38 nM, 1.8 nM, over 20000 nM and 119 nM.
As for `N#Cc1cccc(-c2nc(Nc3n[nH]c(C4CC4)n3)sc2-n2ccnc2CO)c1` [Compound 17, 3-{2-[(5-Cyclopropyl-1H-1,2,4-Triazol-3-Yl)Amino]-5-[2-(Hydroxymethyl)-1H-Imidazol-1-Yl]-1,3-Thiazol-4-Yl}Benzonitrile], the EC50 worked out at 2.4 nM at human A2B receptor and 100 nM on human A2A receptor.
